According to PubChem BioAssay AID1648 (Sanford-Burnham Center for Chemical Genomics, 2009):
The source made the active and inactive calls. The rule behind the calls is not given here.

What follows are compounds tested against Serine/threonine-protein kinase mTOR (Homo sapiens) (UniProt P42345) (assay: mTOR FRB domain ligand binding – biophysical, NMR (AID 1648)). Details: NMR binding to FRB domain, chemical shift.
Chain of Serine/threonine-protein kinase mTOR (Homo sapiens) (P42345 2015-2114): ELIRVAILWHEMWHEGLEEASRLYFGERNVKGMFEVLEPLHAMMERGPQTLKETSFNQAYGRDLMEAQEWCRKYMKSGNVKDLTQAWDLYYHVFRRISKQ

| SMILES | Kd |
| --- | --- |
| Nc1ccccc1N=C1CNC(=O)C1 | > 4 mM (inactive) |
| Oc1cc(O)cc(/C=C/c2ccccc2)c1 | > 4 mM (inactive) |
| CC(C)c1c(O)ccc2c1CCC1C(C)(C)CCC[C@]21C (stereo not given in full) | > 4 mM (inactive) |
| NCCc1nc2ccccc2[nH]1 | > 4 mM (inactive) |
| O=C1CCC(c2cccs2)=NN1 | > 4 mM (inactive) |
| CC(=O)c1cccc(NC(=O)N2CCc3ccccc3C2)c1 | > 4 mM (inactive) |
| C[C@@H]1C(=O)OC2[C@H](O)C34[C@@H]5OC(=O)[C@@]3(O[C@@H]3OC(=O)[C@H](O)[C@@]34[C@H](C(C)(C)C)[C@H]5O)[C@]21O (stereo not given in full) | > 4 mM (inactive) |
| CCC[C@H]1CC2=C(C[C@@H](CC)CC3=C1C(=O)OC3=O)C(=O)OC2=O | > 4 mM (inactive) |
| NC1=NCc2ccccc21 | > 4 mM (inactive) |
| COc1ccc(-c2coc3cc(OC)cc(OC)c3c2=O)cc1 | > 4 mM (inactive) |
| Cn1nnc2cc(C(=O)NCc3ccco3)ccc21 | > 4 mM (inactive) |
| Cn1nnc2cc(C(=O)NC3=NCCS3)ccc21 | > 4 mM (inactive) |
| CC(=O)Oc1c2c(c3c(c1CC=C(C)C)O[C@]14C(=C[C@@H]5CC1C(C)(C)OC4(C/C=C(\C)C(=O)O)C5=O)C3=O)OC(C)(CCC=C(C)C)C=C2 (stereo not given in full) | > 4 mM (inactive) |
| COC(=O)Cc1cc(=O)n(-c2nc3ccccc3s2)[nH]1 | > 4 mM (inactive) |
| Cn1ccc(NC(=S)Nc2cccc([N+](=O)[O-])c2)n1 | > 4 mM (inactive) |
| C=C1C(=O)O[C@@H]2C3OC3(C)CC/C=C(\C)CC[C@@H]12 (stereo not given in full) | > 4 mM (inactive) |
| CC12CN([N+](=O)[O-])C3(C(N)=O)CC1CCC23C (stereo not given) | > 4 mM (inactive) |
| CC(C)=NNC(=O)c1ccccc1 | > 4 mM (inactive) |
| CC(=O)Oc1ccc2c(c1C(C)C)CCC1C(C)(C)CCC[C@]21C (stereo not given in full) | > 4 mM (inactive) |
| CC1NC(C(=O)O)Cc2c1[nH]c1ccccc21 (stereo not given) | > 4 mM (inactive) |

| SMILES | Kd |
| --- | --- |
| c1ccc(-c2noc(-c3cccnc3)n2)nc1 | > 4 mM (inactive) |
| N=Nc1c(O)[nH]c2ccccc12 | > 4 mM (inactive) |
| O=C(Cc1cccs1)Nc1ccon1 | > 4 mM (inactive) |
| CCOC(=O)c1cc(C)[nH]n1 | > 4 mM (inactive) |
| O=C1CSC(=S)N1Cc1cccnc1 | > 4 mM (inactive) |
| C=C1C(=O)O[C@@H]2C[C@@]3(C)CCC[C@H](C)C3=C[C@H]12 | > 4 mM (inactive) |
| CSc1nc2[nH]ncc2c(=O)[nH]1 | > 4 mM (inactive) |
| Cc1cccc(C)c1N1C(=O)CCC1=O | > 4 mM (inactive) |
| Cc1cc(C)n(CCC(=O)O)n1 | > 4 mM (inactive) |
| NCC(O)c1ccc(O)cc1 (stereo not given) | > 4 mM (inactive) |
| COc1ccc2c3c([nH]c2c1)C(C)=NCC3 | > 4 mM (inactive) |
| NCc1cn2ccccc2n1 | > 4 mM (inactive) |
| O=C(Nn1cnnc1)c1cc2c(s1)CCCC2 | > 4 mM (inactive) |
| Cc1cc(N)no1 | > 4 mM (inactive) |
| CC1(C)Cc2c(C#N)c(N)n(-c3ccccc3)c(=O)c2CO1 | > 4 mM (inactive) |
| O=C(Nc1ccc2c(c1)CCC2)c1cnccn1 | > 4 mM (inactive) |
| NS(=O)(=O)c1ccc(F)cc1 | > 4 mM (inactive) |
| O=C(O)C1=CCCNC1 | > 4 mM (inactive) |
| CC(=O)O[C@@H]1CC2C(C)(C)C=CC(=O)[C@]2(C)C2CC[C@@]3(C)[C@H](c4ccoc4)OC(=O)C4OC43[C@@]21C (stereo not given in full) | > 4 mM (inactive) |
| Nc1cccc(C(=O)Nc2ccc(N)cc2Cl)c1 | > 4 mM (inactive) |

| SMILES | Kd |
| --- | --- |
| CCc1nnc(NC(C)=O)s1 | > 4 mM (inactive) |
| O=C1NCCCC1C(=O)N1CCCCC1 (stereo not given) | > 4 mM (inactive) |
| CCCN1CCC(N2CCC(O)CC2)CC1 | > 4 mM (inactive) |
| Cc1nc2ccccc2c(=O)n1CCCn1ccnc1 | > 4 mM (inactive) |
| O=C(O)C1Cc2ccccc2O1 (stereo not given) | > 4 mM (inactive) |
| C=C(C)[C@@H]1[C@H]2OC(=O)[C@@H]1[C@]1(O)C[C@H]3O[C@]34C(=O)O[C@H]2[C@]14C | > 4 mM (inactive) |
| COc1ccc(-c2nc3nc(C)cc(C)n3n2)cc1 | > 4 mM (inactive) |
| O=C(Nc1ccccc1)N1CCOCC1 | > 4 mM (inactive) |
| CC(=O)N1C(=S)NC(=O)/C1=C\c1cccnc1 | > 4 mM (inactive) |
| COc1cc(OC)c2c(=O)c(-c3ccc4c(c3)OCO4)coc2c1 | > 4 mM (inactive) |
| COc1ccc(Cc2nccc3cc(OC)c(OC)cc23)cc1OC | > 4 mM (inactive) |
| O=C(CSc1nnc2ccccn12)N1CCOCC1 | > 4 mM (inactive) |
| O=c1cccc2n1CC1CC2CN2CCCC[C@@H]12 (stereo not given in full) | > 4 mM (inactive) |
| CC(=O)Nc1ccc2c(C)cc(=O)[nH]c2c1 | > 4 mM (inactive) |
| NC(=O)NC(=O)Nc1ccc(Cl)cc1 | > 4 mM (inactive) |
| Cc1ccc(=O)[nH]c1 | > 4 mM (inactive) |
| COC(=O)c1c(C)cc(OC)cc1O | > 4 mM (inactive) |
| CC(=O)c1cc(C)ccc1OC(=O)c1cccnc1 | > 4 mM (inactive) |
| Cc1ccc(N2C(=O)CCC2=O)cc1 | > 4 mM (inactive) |
| CCOC(=O)c1cc(C)n(C)n1 | > 4 mM (inactive) |
